In assay [1] the test system is E. fecalis. The assay is described as follows: Minimal Inhibitory Concentration (MIC) determination, 96 well plates. Type of assay: cell-based, Enterococcus fecalis. To be noted: Enterococcus; HBI medium, 16 to 18 hours at 37°C; read-out: MIC (µg/ml) E. fecalis. As for the experimental part: (§1) The following methods were used to characterize representative compounds. Minimal Inhibitory Concentration (MIC) determinations. MIC values were determined in 96 well plates, with bacterial growth monitored at OD 600 nm in 200µl following an initial bacterial seeding at approximately 1x10^5 colony forming units (CFU)/ml. Each drug is evaluated at five concentrations, with five data points at each dilution. MIC values (µg/ml) were determined against actively growing cultures in Heart-Brain Infusion (HBI) medium. Cell growth in cultures supplemented with a test compound was calculated as a percent of control at OD 600 nm after 16 to 18 hours at 37°C. […] Polymerase IIIC (Pol IIIC) assay. DNA polymerase activity (or inhibition thereof) was measured in a 96-well plate format. B. subtilis Pol IIIC was isolated as described by Hammond and Brown (Protein Expr. Purif., 3: 65-70 (1992)). Each 25 µl assay contained 30 mM Tris, pH 7.5, 10 mM magnesium acetate, 4 mM dithiothreitol, 20% glycerol, with 25 µM dATP, dCTP, dGTP and 10 µM dTTP (^3H-labelled at 1.44 Ci/mmole) and 0.4 mg/ml activated calf thymus DNA as substrates, as described previously (see Barnes et al, op. cit). Assays were initiated by the addition of 0.025 to 0.06 units of enzyme 1 unit is the amount required to incorporate 250 pmoles of [^3H] dTMP in a standard assay), incubated for 10 minutes at 30°C and terminated by the addition of 200 µl of cold 10% trichloroacetic acid (TCA),10 mM sodium pyrophosphate. Precipitated labeled DNA was collected on glass fiber filter plates, washed, dried, and counted in a liquid scintillation counter. Determination of Ki values. DNA polymerase activity was measured in a 96-well plate format in the absence of dGTP or dATP, depending on the structure of the test compound. Each 25 µl assay contained 30 mM Tris, pH 7.5, 10 mM magnesium acetate, 4 mM dithiothreitol, 20% glycerol, with 25 µM dATP, dCTP, and 10 µM dTTP (^3H-labelled at 1.44 Ci/mmole) and 0.4 mg/ml activated calf thymus DNA as substrates, as described previously. […] Assays were initiated by the addition of 0.025 to 0.06 units of enzyme (1 unit is the amount required to incorporate 250 pmoles of [^3H] dTMP in a standard assay), incubated for 10 minutes at 30 °C and terminated by the addition of 200 µl of cold 10% trichloroacetic acid, 10 mM sodium pyrophosphate. Precipitated labeled DNA was collected on glass fiber filter plates, washed, dried, and counted in a liquid scintillation counter. Ki is the concentration of test compound that reduces the control polymerase IIIC activity by 50 percent.
(§2) MIC values were determined for the Gram positive bacteria Bacillus subtilis, Staphylococcus aureus (two strains), Enterococcus fecalis, Enterococcus fecium, and for the Gram negative bacterium Escherichia coli.

The test system of assay [2] is E. fecium. The assay is described as above. The following applies: Enterococcus; HBI medium, 16 to 18 hours at 37°C; read-out: MIC (µg/ml) E. fecium. Type of assay: cell-based, Enterococcus fecium. As for the experimental part: as §1, §2
Assay [3] concerns S.aureus (Smith). Described as above. It counts as cell-based, Staphylococcus aureus. To be noted: Staphylococcus aureus; HBI medium, 16 to 18 hours at 37°C; read-out: MIC (µg/ml) S.aureus (Smith). Here is the method: as §1, §2
In assay [4] the target is T1, B. subtilis Pol IIIC (Bacillus subtilis, UniProt P13267).
T1 construct: made in house
T1 sequence (P13267 whole entry): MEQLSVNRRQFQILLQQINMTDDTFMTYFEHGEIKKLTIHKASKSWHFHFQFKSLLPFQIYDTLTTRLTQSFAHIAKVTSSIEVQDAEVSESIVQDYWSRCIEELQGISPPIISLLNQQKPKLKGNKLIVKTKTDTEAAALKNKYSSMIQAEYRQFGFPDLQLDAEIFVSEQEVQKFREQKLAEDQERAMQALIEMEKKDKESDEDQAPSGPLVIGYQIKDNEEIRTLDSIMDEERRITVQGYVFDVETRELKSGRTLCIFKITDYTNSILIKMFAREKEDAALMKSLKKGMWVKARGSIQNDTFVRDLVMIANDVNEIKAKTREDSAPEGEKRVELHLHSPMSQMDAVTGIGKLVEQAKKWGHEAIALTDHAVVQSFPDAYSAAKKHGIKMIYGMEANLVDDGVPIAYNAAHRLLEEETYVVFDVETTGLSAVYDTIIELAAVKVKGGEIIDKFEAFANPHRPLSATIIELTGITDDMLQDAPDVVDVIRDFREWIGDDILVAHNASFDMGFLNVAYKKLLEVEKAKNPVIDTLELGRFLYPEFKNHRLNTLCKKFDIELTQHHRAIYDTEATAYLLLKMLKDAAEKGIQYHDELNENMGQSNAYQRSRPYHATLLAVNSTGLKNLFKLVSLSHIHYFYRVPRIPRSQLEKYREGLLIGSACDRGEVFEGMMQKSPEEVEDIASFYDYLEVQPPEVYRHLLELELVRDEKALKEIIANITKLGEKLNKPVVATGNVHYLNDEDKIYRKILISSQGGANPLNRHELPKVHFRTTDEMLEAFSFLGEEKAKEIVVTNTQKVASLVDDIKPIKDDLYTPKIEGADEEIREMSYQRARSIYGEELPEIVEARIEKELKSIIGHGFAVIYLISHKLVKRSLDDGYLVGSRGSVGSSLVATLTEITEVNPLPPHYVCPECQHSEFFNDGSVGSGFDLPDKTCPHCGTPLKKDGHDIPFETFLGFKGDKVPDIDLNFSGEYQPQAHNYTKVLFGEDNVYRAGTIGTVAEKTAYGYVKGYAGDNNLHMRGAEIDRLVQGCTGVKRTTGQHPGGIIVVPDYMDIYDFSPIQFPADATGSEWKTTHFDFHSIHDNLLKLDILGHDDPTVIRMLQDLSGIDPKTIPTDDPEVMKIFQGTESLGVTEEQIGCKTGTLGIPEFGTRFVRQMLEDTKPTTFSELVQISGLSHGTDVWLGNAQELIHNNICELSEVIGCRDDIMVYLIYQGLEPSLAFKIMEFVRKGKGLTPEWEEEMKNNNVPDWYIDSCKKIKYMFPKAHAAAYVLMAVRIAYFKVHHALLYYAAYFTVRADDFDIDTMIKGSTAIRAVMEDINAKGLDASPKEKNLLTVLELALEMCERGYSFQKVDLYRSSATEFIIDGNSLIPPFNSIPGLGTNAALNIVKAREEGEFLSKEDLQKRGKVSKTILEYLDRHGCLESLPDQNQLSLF
Nature of the assay: Polymerase IIIC (Pol IIIC) assay, determination of Ki values. It counts as biochemical. The following applies: Ki (µM) Pol IIIC, assay in absence of dGTP or dATP; Ki is the concentration that reduces control polymerase IIIC activity by 50 percent. Here is the method:
as §1

Assay [5] deals with E. coli. Nature of the assay: Minimal Inhibitory Concentration (MIC) determination, 96 well plates. Type of assay: cell-based, Escherichia coli. The following applies: Escherichia coli, read-out: MIC (µg/ml) E. coli. Here is the method:
(§3) The following methods were used to characterize representative compounds. Minimal Inhibitory Concentration (MIC) determinations. MIC values were determined in 96 well plates, with bacterial growth monitored at OD 600 nm in 200µl following an initial bacterial seeding at approximately 1x10^5 colony forming units (CFU)/ml. Each drug is evaluated at five concentrations, with five data points at each dilution. MIC values (µg/ml) were determined against actively growing cultures in Heart-Brain Infusion (HBI) medium. Cell growth in cultures supplemented with a test compound was calculated as a percent of control at OD 600 nm after 16 to 18 hours at 37°C. This plate format conserves test compound and provides precise, quantitative data with low standard deviation determinations. Polymerase IIIC (Pol IIIC) assay. DNA polymerase activity (or inhibition thereof) was measured in a 96-well plate format. B. subtilis Pol IIIC was isolated as described by Hammond and Brown (Protein Expr. Purif., 3: 65-70 (1992)). Each 25 µl assay contained 30 mM Tris, pH 7.5, 10 mM magnesium acetate, 4 mM dithiothreitol, 20% glycerol, with 25 µM dATP, dCTP, dGTP and 10 µM dTTP (^3H-labelled at 1.44 Ci/mmole) and 0.4 mg/ml activated calf thymus DNA as substrates, as described previously (see Barnes et al, op. cit). Assays were initiated by the addition of 0.025 to 0.06 units of enzyme 1 unit is the amount required to incorporate 250 pmoles of [^3H] dTMP in a standard assay), incubated for 10 minutes at 30°C and terminated by the addition of 200 µl of cold 10% trichloroacetic acid (TCA),10 mM sodium pyrophosphate. Precipitated labeled DNA was collected on glass fiber filter plates, washed, dried, and counted in a liquid scintillation counter. Determination of Ki values. DNA polymerase activity was measured in a 96-well plate format in the absence of dGTP or dATP, depending on the structure of the test compound. Each 25 µl assay contained 30 mM Tris, pH 7.5, 10 mM magnesium acetate, 4 mM dithiothreitol, 20% glycerol, with 25 µM dATP, dCTP, and 10 µM dTTP (^3H-labelled at 1.44 Ci/mmole) and 0.4 mg/ml activated calf thymus DNA as substrates, as described previously. To each well were added 2 µl of compound solution to give final concentrations ranging from 20 - 0.027 µg/ml in the assay. Assays were initiated by the addition of 0.025 to 0.06 units of enzyme (1 unit is the amount required to incorporate 250 pmoles of [^3H] dTMP in a standard assay), incubated for 10 minutes at 30 °C and terminated by the addition of 200 µl of cold 10% trichloroacetic acid, 10 mM sodium pyrophosphate. Precipitated labeled DNA was collected on glass fiber filter plates, washed, dried, and counted in a liquid scintillation counter. Ki is the concentration of test compound that reduces the control polymerase IIIC activity by 50 percent.
as §2

For assay [6], the system named is B. subtilis. The description is as above. The following applies: Bacillus subtilis; HBI medium, 16 to 18 hours at 37°C; read-out: MIC (µg/ml) B. subtilis. It counts as cell-based, Bacillus subtilis. As for the experimental part: as §1, §2
In assay [7] the test system is S. aureus. The description is as above. Type of assay: cell-based, Staphylococcus aureus. To be noted: Staphylococcus aureus; HBI medium, 16 to 18 hours at 37°C; read-out: MIC (µg/ml) S. aureus. Here is the method: as §3, §2
Where [8] appears, read: HBI medium, 16 to 18 hours at 37°C.

Converted amounts (≈) assume the structure as drawn. Like-named read-outs stand apart in the source and are kept apart here.

For orientation: Ki means the dissociation constant of the complex between target and ligand, obtained from inhibition or displacement. A lower Ki goes with higher affinity. As for `CCc1cc(Nc2cc(=O)n(CCCCCN3CCCC4CN(c5cc6c(cc5F)c(=O)c(C(=O)O)cn6CC)CC43)c(=O)[nH]2)ccc1C` (centres unmarked) [Compound 80, 3-{5-[1-(1-ethyl-3-carboxy-4-oxo-6-fluoro-7-quinolyl)-3-(1,3-diazabicyclononyl)]pentyl}-6-(3-ethyl-4-methylanilino)uracil], the MIC was 12.5 µg/mL (≈ 18.6 µM) in assay [1]; 20 µg/mL (≈ 29.7 µM) in assay [2]; 5 µg/mL (≈ 7.43 µM) in assay [3]; 0.8 µg/mL (≈ 1.19 µM) in assay [5]; 2.5 µg/mL (≈ 3.72 µM) in assay [6]; 7.5 µg/mL (≈ 11.1 µM) in assay [7]. The Ki in assay [4] stood at 0.037 µM.
For the molecule `CCc1cc(Nc2cc(=O)n(CCCCCN3CCC4CN(c5cc6c(cc5F)c(=O)c(C(=O)O)cn6C5CC5)CC43)c(=O)[nH]2)ccc1C` (centres unmarked) [Compound 81, 3-{5-[1-(1-cyclopropyl-3-carboxy-4-oxo-6-fluoro-7-quinolyl)-3-(1,3-diazabicyclooctyl)]pentyl}-6-(3-ethyl-4-methylanilino)uracil], the MIC in assay [1] is 3.7 µg/mL (≈ 5.52 µM); in assay [2], 12.5 µg/mL (≈ 18.6 µM); in assay [3], 2.5 µg/mL (≈ 3.73 µM); in assay [5] (setting [8]) it was greater than 80 µg/mL; in assay [6], 1.25 µg/mL (≈ 1.86 µM); in assay [7] it was 5 µg/mL (≈ 7.45 µM). In assay [4], this molecule gave a Ki of 0.04 µM.
Consider `CCc1cc(Nc2cc(=O)n(CCCCCN3CCCC4CN(c5cc6c(cc5F)c(=O)c(C(=O)O)cn6C5CC5)CC43)c(=O)[nH]2)ccc1C` (centres unmarked) [Compound 82, 3-{5-[1-(1-cyclopropyl-3-carboxy-4-oxo-6-fluoro-7-quinolyl)-3-(1,3-diazabicyclononyl)]pentyl}-6-(3-ethyl-4-methylanilino)uracil], for which the MIC was 20 µg/mL (≈ 29.2 µM) in assay [1]; greater than 80 µg/mL in assay [2]; 1.25 µg/mL (≈ 1.83 µM) in assay [3]; greater than 80 µg/mL in assay [5] (setting [8]); 1.25 µg/mL (≈ 1.83 µM) in assay [6]; 2.5 µg/mL (≈ 3.65 µM) in assay [7]. Also, in assay [4], affinity was put at a Ki of 0.041 µM.
Regarding `CCc1cc(Nc2cc(=O)n(CCCCCNC3CCN(c4cc5c(cc4F)c(=O)c(C(=O)O)cn5C4CC4)C3)c(=O)[nH]2)ccc1C` (centres unmarked) [Compound 83, 3-{5-[1-(1-cyclopropyl-3-carboxy-4-oxo-6-fluoro-7-quinolyl)-3-(pyrrolidinylamino)]pentyl}-6-(3-ethyl-4-methylanilino)uracil], the MIC was 5 µg/mL (≈ 7.75 µM) in assay [1]; 40 µg/mL (≈ 62 µM) in assay [2]; 5 µg/mL (≈ 7.75 µM) in assay [3]; greater than 80 µg/mL in assay [5] (setting [8]); 3.7 µg/mL (≈ 5.74 µM) in assay [6]; 20 µg/mL (≈ 31 µM) in assay [7]. In assay [4], this molecule gave a Ki of 0.041 µM.
Regarding `CCc1cc(Nc2cc(=O)n(CCCCCN3CCOC4CN(c5cc6c(cc5F)c(=O)c(C(=O)O)cn6C5CC5)CC43)c(=O)[nH]2)ccc1C` (centres unmarked) [Compound 84, 3-{5-[1-(1-cyclopropyl-3-carboxy-4-oxo-6-fluoro-7-quinolyl)-3-(5-oxa-1,3-diazabicyclononyl)]pentyl}-6-(3-ethyl-4-methylanilino)uracil], the MIC in assay [1] was 2.5 µg/mL (≈ 3.64 µM); in assay [2], 25 µg/mL (≈ 36.4 µM); in assay [3], 0.625 µg/mL (≈ 0.91 µM); in assay [5] (setting [8]), greater than 80 µg/mL; in assay [6], 0.313 µg/mL (≈ 0.456 µM); in assay [7], 1.25 µg/mL (≈ 1.82 µM). This molecule also returned a Ki in assay [4] of 0.033 µM.
Take `CCc1cc(Nc2cc(=O)n(CCCCCN3CCOC4CN(c5c(F)cc6c(=O)c(C(=O)O)cn(CC)c6c5F)CC43)c(=O)[nH]2)ccc1C` (centres unmarked) [Compound 85, 3-{5-[1-(1-ethyl-3-carboxy4-oxo-6,8-difluoro-7-quinolyl)-3-(5-oxa-1,3-diazabicyclononyl)]pentyl)-6-(3-ethyl-4-methylanilino)uracil]: the MIC in assay [1] is 7.5 µg/mL (≈ 10.8 µM); in assay [2] it was 12.5 µg/mL (≈ 18 µM); in assay [3], 6.1 µg/mL (≈ 8.81 µM); in assay [5] (setting [8]), greater than 80 µg/mL; in assay [6], 0.313 µg/mL (≈ 0.452 µM); in assay [7], 5 µg/mL (≈ 7.22 µM). The Ki in assay [4] is 0.059 µM.
Turning to `CCc1cc(Nc2cc(=O)n(CCCCCN3CC4CN(c5cc6c(cc5F)c(=O)c(C(=O)O)cn6C5CC5)CC4C3)c(=O)[nH]2)ccc1C` (centres unmarked) [Compound 86, 3-{5-[1-(1-cyclopropyl-3-carboxy-4-oxo-6-fluoro-7-quinolyl)-4-(1,4-diazabicyclooctyl)]pentyl}-6-(3-ethyl-4-methylanilino)uracil], the MIC in assay [1] is 10 µg/mL (≈ 14.9 µM); in assay [2] it was 40 µg/mL (≈ 59.6 µM); in assay [3], 2.5 µg/mL (≈ 3.73 µM); in assay [5] (setting [8]), greater than 80 µg/mL; in assay [6] it was 2.5 µg/mL (≈ 3.73 µM); in assay [7] it was 5 µg/mL (≈ 7.45 µM). Further, the affinity in assay [4], expressed as Ki, was 0.054 µM.
`CCc1cc(Nc2cc(=O)n(CCCCN3CCOC4CN(c5cc6c(cc5F)c(=O)c(C(=O)O)cn6C5CC5)CC43)c(=O)[nH]2)ccc1C` (centres unmarked) [Compound 87, 3-{4-[1-(1-cyclopropyl-3-carboxy-4-oxo-6-fluoro-7-quinolyl)-3-(5-oxa-1,3-diazabicyclononyl)]butyl}-6-(3-ethyl-4-methylanilino)uracil]: the MIC is 2.5 µg/mL (≈ 3.72 µM) in assay [1]; 7.5 µg/mL (≈ 11.1 µM) in assay [2]; 0.625 µg/mL (≈ 0.929 µM) in assay [3]; greater than 40 µg/mL in assay [5] (setting [8]); 0.313 µg/mL (≈ 0.465 µM) in assay [6]; 1.87 µg/mL (≈ 2.78 µM) in assay [7]. Besides, the Ki in assay [4] came out at 0.088 µM.
